According to patent US20260167623A1 (NIKANG THERAPEUTICS, INC., priority 2022, published 2026):

Each compound was assayed against T1, CDK2 (Homo sapiens, UniProt P24941) (assay: Inhibition of CDK2: phospho-Rb (S807/811) HTRF measurement in OVCAR3 cells, 24 h). Conditions: 24 h compound treatment, read-out: pRB_OVCAR3_24h.
T1 construct: High-Throughput Measurement of Cellular Endogenous CDK2; endogenous in cells; host or cells: OVCAR3
Format: cell-based
Description: Inhibition of CDK2: Phospho-R^b Measurement in Cells
Phosphorylation of RB protein at S807/811 were measured using HTRF phospho-RB cellular kits (Cat #64RBS807PEG) from Cisbio.
On Day 1, OVCAR3 (CDK2 dependent cell line) cells were seeded into 96-well tissue-culture treated plates at 20,000 cells/well in 200 μL and incubated overnight at 37° C. in CO2 atmosphere. On Day 2, the cells were treated with test compounds at concentrations from 0.3 to 10,000 nM using HP D300 digital dispenser. Twenty-four hours after compound treatment, cell culture media is removed by flicking the plate and tapping the plate against clean paper towel. 30 μL 1× lysis buffer was supplemented from the kit was added to each well and the plate was incubated at room temperature on shaker for 30 min. After homogenization by pipetting up and down, 8 μL cell lysate from 96-well cell culture plate was transferred to 384-well small volume white detection plate. 2 μL premixed detection solution was added and the plate was covered with sealer. To prepare the detection solution, d2 conjugated-phospho-RB antibody and Eu-cryptate conjugated phosphor-RB antibody were diluted into detection buffer following manufacturer's instruction. Detection plates were incubated for 4 h at room temperature and read on ClarioStar (BMG Labtech) in TR-FRET mode (665 nM and 620 nM). The TR-FRET ratio (665 nM/620 nM) was plotted against the compound concentration and normalized to DMSO controls. Half maximal inhibition concentration (IC50) values were calculated with a four-parameter logistic fit using GraphPad Prism (version 8; La Jolla, CA).

| SMILES | IC50 [nM] |
| --- | --- |
| O=C1CCC(N2Cc3cc(C4CN(Cc5cccc(S(=O)(=O)N6CCC(Nc7ncc(Cl)cn7)CC6)c5)C4)ccc3C2=O)C(=O)N1 (stereo not shown) [Example 50, 3-(5-(1-(3-((4-((5-chloropyrimidin-2-yl)amino)piperidin-1-yl)sulfonyl)benzyl)-azetidin-3-yl)-1-oxoisoindolin-2-yl)piperidine-2,6-dione] | 500 to 2500 |
| Cn1nc(N2CCC(=O)NC2=O)c2ccc(C3CCN(Cc4cccc(S(=O)(=O)N5CCC(Nc6ncc(C(C)(F)F)cn6)CC5)c4)CC3)cc21 [Example 17, 1-(6-(1-(3-((4-((5-(1,1-difluoroethyl)-pyrimidin-2-yl)amino)piperidin-1-yl)sulfonyl)benzyl)piperidin-4-yl)-1-methyl-1H-indazol-3-yl)dihydropyrimidine-2,4(1H,3H)-dione] | > 2500 |
| Cn1nc(N2CCC(=O)NC2=O)c2ccc(N3CCN(CC4CCN(c5cccc(S(=O)(=O)N6CCC(Nc7ncc(C(F)(F)F)cn7)CC6)c5)CC4)CC3)cc21 [Example 51, 1-(1-methyl-6-(4-((1-(3-((4-((5-(trifluoro-methyl)pyrimidin-2-yl)amino)piperidin-1-yl)sulfonyl)phenyl)piperidin-4-yl)methyl)piperazin-1-yl)-1H-indazol-3-yl)dihydropyrimidine-2,4(1H,3H)-dione] | 500 to 2500 |
| Cn1nc(N2CCC(=O)NC2=O)c2ccc(C3CCN(CC4CCN(c5cccc(S(=O)(=O)N6CCC(Nc7ncc(F)cn7)CC6)c5)CC4)CC3)cc21 [Example 193, 1-(6-(1-((1-(3-((4-((5-fluoropyrimidin-2-yl)amino)piperidin-1-yl)sulfonyl)phenyl)piperidin-4-yl)methyl)piperidin-4-yl)-1-methyl-1H-indazol-3-yl)dihydropyrimidine-2,4(1H,3H)-dione] | 500 to 2500 |
| Cn1nc(N2CCC(=O)NC2=O)c2ccc(N3CC4CC(C3)N4CC3CCN(c4cccc(S(=O)(=O)N5CCC(Nc6ncc(C(F)(F)F)cn6)CC5)c4)CC3)cc21 [Example 126, 1-(1-methyl-6-(6-((1-(3-((4-((5-(trifluoro-methyl)pyrimidin-2-yl)amino)piperidin-1-yl)sulfonyl)phenyl)piperidin-4-yl)methyl)-3,6-diazabicyclo[3.1.1]heptan-3-yl)-1H-indazol-3-yl)dihydropyrimidine-2,4(1H,3H)-dione] | 500 to 2500 |
| N#Cc1ccc(S(=O)(=O)N2CCC(Nc3ncc(Cl)cn3)CC2)cc1N1CCC(CN2CCN(c3cc4c(cc3F)C(=O)N(C3CCC(=O)NC3=O)C4=O)CC2)CC1 (stereo not shown) [Example 185, 4-((4-((5-chloropyrimidin-2-yl)amino)piperidin-1-yl)sulfonyl)-2-(4-((4-(2-(2,6-dioxopiperidin-3-yl)-6-fluoro-1,3-dioxoisoindolin-5-yl)piperazin-1-yl)methyl)piperidin-1-yl)benzonitrile] | 500 to 2500 |
| Cn1nc(N2CCC(=O)NC2=O)c2ccc(C3CCN(CC4CCN(S(=O)(=O)[C@H]5CC[C@H](Nc6ncc(C(F)(F)F)cn6)CC5)CC4)CC3)cc21 [Example 20, 1-(1-methyl-6-(1-((1-(((1r,4r)-4-((5-(trifluoromethyl)pyrimidin-2-yl)amino)-cyclohexyl)sulfonyl)piperidin-4-yl)methyl)-piperidin-4-yl)-1H-indazol-3-yl)-dihydropyrimidine-2,4(1H,3H)-dione] | 500 to 2500 |
| O=C1CCC(N2C(=O)c3cc(F)c(N4CCN(CC5CCN(c6cccc(S(=O)(=O)N7CCC(Nc8ncc(Cl)cn8)CC7)c6)CC5)CC4)cc3C2=O)C(=O)N1 (stereo not shown) [Example 79, 5-(4-((1-(3-((4-((5-chloropyrimidin-2-yl)amino)piperidin-1-yl)sulfonyl)phenyl)-piperidin-4-yl)methyl)piperazin-1-yl)-2-(2,6-dioxopiperidin-3-yl)-6-fluoroisoindoline-1,3-dione] | 500 to 2500 |
| O=C1CCC(NC(=O)c2ccc(C3CCN(CC4CCN(c5cccc(S(=O)(=O)N6CCC(Nc7ncc(C(F)(F)F)cn7)CC6)c5)CC4)CC3)cc2F)C(=O)N1 (stereo not shown) [Example 236, N-(2,6-dioxopiperidin-3-yl)-2-fluoro-4-(1-((1-(3-((4-((5-(trifluoromethyl)pyrimidin-2-yl)amino)piperidin-1-yl)sulfonyl)phenyl)piperidin-4-yl)methyl)piperidin-4-yl)benzamide] | 100 to 500 |

More lines, now with the values ahead:

| IC50 [nM] | SMILES |
| --- | --- |
| 100 to 500 | Cn1nc(N2CCC(=O)NC2=O)c2cnc(C3CCN(CC4CCN(c5cccc(S(=O)(=O)N6CCC(Nc7ncc(Cl)cn7)CC6)c5)CC4)CC3)cc21 [Example 228, 1-(6-(1-((1-(3-((4-((5-chloropyrimidin-2-yl)amino)piperidin-1-yl)sulfonyl)phenyl)piperidin-4-yl)methyl)piperidin-4-yl)-1-methyl-1H-pyrazolo[4,3-c]pyridin-3-yl)dihydropyrimidine-2,4(1H,3H)-dione] |
| 100 to 500 | Cn1nc(N2CCC(=O)NC2=O)c2ccc(C3CCN(CC4CCN(c5cccc(S(=O)(=O)N6CCC(Nc7ncc(OC8CC8)cn7)CC6)c5)CC4)CC3)cc21 [Example 252, 1-(6-(1-((1-(3-((4-((5-cyclopropoxypyrimidin-2-yl)amino)piperidin-1-yl)sulfonyl)phenyl)piperidin-4-yl)methyl)piperidin-4-yl)-1-methyl-1H-indazol-3-yl)dihydropyrimidine-2,4(1H,3H)-dione] |
| 100 to 500 | CC1(C)C(=O)N(C2CCC(=O)NC2=O)c2cccc(C3CCN(CC4CCN(c5cc(S(=O)(=O)N6CCC(Nc7ncc(Cl)cn7)CC6)ccc5C#N)CC4)CC3)c21 (stereo not shown) [Example 207, 4-((4-((5-chloropyrimidin-2-yl)amino)piperidin-1-yl)sulfonyl)-2-(4-((4-(1-(2,6-dioxopiperidin-3-yl)-3,3-dimethyl-2-oxoindolin-4-yl)piperidin-1-yl)methyl)piperidin-1-yl)benzonitrile] |
| 100 to 500 | O=C1CCC(N2Cc3cc(N4CCC(N5CC(Oc6cccc(S(=O)(=O)N7CCC(Nc8ncc(C(F)(F)F)cn8)CC7)c6)C5)CC4)ccc3C2=O)C(=O)N1 (stereo not shown) [Example 45, 3-(1-ox0-5-(4-(3-(3-((4-((5-(trifluoro-methyl)pyrimidin-2-yl)amino)piperidin-1-yl)sulfonyl)phenoxy)azetidin-1-yl)piperidin-1-yl)isoindolin-2-yl)piperidine-2,6-dione] |
| 100 to 500 | O=C1CCC(N2Cc3cc(N4CCN(CC5CCN(c6cccc(S(=O)(=O)N7CCC(Nc8ncc(C(F)(F)F)cn8)CC7)c6)CC5)CC4)c(F)cc3C2=O)C(=O)N1 (stereo not shown) [Example 101, 3-(6-fluoro-1-oxo-5-(4-((1-(3-((4-((5-(trifluoromethyl)pyrimidin-2-yl)amino)-piperidin-1-yl)sulfonyl)phenyl)piperidin-4-yl)methyl)piperazin-1-yl)isoindolin-2-yl)piperidine-2,6-dione] |
| 1 to 100 | Cn1nc(N2CCC(=O)NC2=O)c2ccc(C3CCN(Cc4ccc(-c5cccc(S(=O)(=O)N6CCC(Nc7ncc(Cl)cn7)CC6)c5)cc4)CC3)cc21 [Example 122] |
| 100 to 500 | Cn1nc(N2CCC(=O)NC2=O)c2ccc(C3CCN(CC4CCC(c5cccc(S(=O)(=O)N6CCC(Nc7ncc(Cl)cn7)CC6)c5)CC4)CC3)cc21 (stereo not shown) [Example 156, 1-(6-(1-((4-(3-((4-((5-chloropyrimidin-2-yl)amino)piperidin-1-yl)sulfonyl)phenyl)cyclohexyl)methyl)piperidin-4-yl)-1-methyl-1H-indazol-3-yl)dihydropyrimidine-2,4(1H,3H)-dione 2,2,2-trifluoroacetate] |
| 100 to 500 | Cc1ncsc1-c1ccc([C@H](C)NC(=O)[C@@H]2C[C@@H](O)CN2C(=O)[C@@H](NC(=O)CC2CCN(Cc3cccc(S(=O)(=O)N4CCC(Nc5ncc(C(F)(F)F)cn5)CC4)c3)CC2)C(C)(C)C)cc1 [Example 9, (2S,4R)-1-((S)-3,3-dimethyl-2-(2-(1-(3-((4-((5-(trifluoromethyl)pyrimidin-2-yl)amino)piperidin-1-yl)sulfonyl)-benzyl)piperidin-4-yl)acetamido)butanoyl)-4-hydroxy-N-((S)-1-(4-(4-methylthiazol-5-yl)phenyl)ethyl)pyrrolidine-2-carboxamide] |
| 100 to 500 | Cn1nc(N2CCC(=O)NC2=O)c2ccc(C3CCN(C[C@@H]4CCCN(c5cccc(S(=O)(=O)N6CCC(Nc7ncc(OC(F)F)cn7)CC6)c5)C4)CC3)cc21 [Example 257, (S)-1-(6-(1-((1-(3-((4-((5-(difluoromethoxy)pyrimidin-2-yl)amino)piperidin-1-yl)sulfonyl)phenyl)piperidin-3-yl)methyl)piperidin-4-yl)-1-methyl-1H-indazol-3-yl)dihydropyrimidine-2,4(1H,3H)-dione] |
| 100 to 500 | O=C1CCC(N2Cc3cc(N4CCN(CC5CCN(c6cccc(S(=O)(=O)N7CCC(Nc8ncc(Cl)cn8)CC7)c6)CC5)CC4)ccc3C2=O)C(=O)N1 (stereo not shown) [Example 98, 3-(5-(4-((1-(3-((4-((5-chloropyrimidin-2-yl)amino)piperidin-1-yl)sulfonyl)phenyl)-piperidin-4-yl)methyl)piperazin-1-yl)-1-oxoisoindolin-2-yl)piperidine-2,6-dione] |
